For assay [1], the system named is E. coli mL308 225. The experiment in a line: In Vitro Anti-Bacterial Activity Assay (MIC), gram negative. It counts as cell-based. As to conditions: Escherichia coli, ML308225, 18 h.
Assay [2] relates to S. aureus RN450. The experiment in a line: In Vitro Anti-Bacterial Activity Assay (MIC), gram positive. It counts as cell-based. As to conditions: Staphylococcus aureus, RN450, 18 h.
Where [3] appears, read: MIC class, Table 3, read-out: Antibiotic Activity Gram −.
[4] abbreviates: MIC class, Table 3, read-out: Antibiotic Activity Gram +.
Where [5] appears, read: MIC class, Table 3 (Continued), read-out: Gram− activity.
The mark [6] stands for this setting: MIC class, Table 3 (Continued), read-out: Gram+ activity.
Setting [7] is: gram negative bacteria, read-out: Antibiotic Activity Gram − (MIC).
Where [8] appears, read: gram positive bacteria, read-out: Antibiotic Activity Gram + (MIC).

Where two headings read alike, the source gives them in different places. Where only a bound is given, the exact number is not on record here.

Consider `C[C@H]1c2cccc(O)c2C(=O)C2=C(O)[C@]3(O)C(=O)C(C(N)=O)=C(O)[C@@H](N(C)C)[C@@H]3[C@@H](OC(=O)C34CC5CC(CC(C5)C3)C4)[C@@H]21` [T], for which the results for the MIC in assay [1] (setting [3]) and in assay [2] (setting [4]) were more than 4 mg/L and less than 4 mg/L, respectively. In the case of `CN(C)c1cc(C#Cc2ccccc2)c(O)c2c1C[C@H]1C[C@H]3[C@H](N(C)C)C(O)=C(C(N)=O)C(=O)[C@@]3(O)C(O)=C1C2=O`, the MIC in assay [1] (setting [5]) and in assay [2] (setting [6]) was less than 4 mg/L each time. Consider `CCOC(=O)c1cccc(-c2ccc(O)c3c2C[C@H]2C[C@H]4[C@H](N(C)C)C(O)=C(C(N)=O)C(=O)[C@@]4(O)C(O)=C2C3=O)c1`, for which the MIC in assay [1] (setting [5]) and in assay [2] (setting [6]) was less than 4 mg/L throughout.

As to `CCN(CC)Cc1ccc(OC)c(-c2ccc(O)c3c2C[C@H]2C[C@H]4C(N(C)C)C(O)=C(C(N)=O)C(=O)[C@@]4(O)C(O)=C2C3=O)c1` (some centres unmarked) [EC], the MIC in assay [1] (setting [3]) and in assay [2] (setting [4]) was less than 4 mg/L each time. On to `CCCc1ccc(O)c2c1C[C@H]1C[C@H]3[C@H](N(C)C)C(O)=C(C(N)=O)C(=O)[C@@]3(O)C(O)=C1C2=O`, for which the MIC in assay [1] (setting [7]) and in assay [2] (setting [8]) was less than 4 mg/L throughout. With `CN(C)c1cc(CNC(=O)Nc2ccc3c(c2)OCO3)c(O)c2c1C[C@H]1C[C@H]3[C@H](N(C)C)C(O)=C(C(N)=O)C(=O)[C@@]3(O)C(O)=C1C2=O`, the values for the MIC in assay [1] (setting [7]) and in assay [2] (setting [8]) were more than 4 mg/L and less than 4 mg/L, respectively. With `CCc1cc(-c2ccc(N(C)C)cc2)c2c(c1O)C(=O)C1=C(O)[C@]3(O)C(=O)C(C(N)=O)=C(O)[C@@H](N(C)C)[C@@H]3C[C@@H]1C2`, the MIC in assay [1] (setting [7]) and in assay [2] (setting [8]) was less than 4 mg/L throughout.

For the molecule `CC1c2ccc(C3C=CCC3)c(O)c2C(=O)C2=C(O)[C@]3(O)C(=O)C(C(N)=O)=C(O)[C@@H](N(C)C)[C@@H]3[C@@H](O)[C@@H]21` (some centres unmarked), the MIC in assay [1] (setting [5]) and in assay [2] (setting [6]) was less than 4 mg/L in each case. With `Cc1cc(CNCc2cc(N(C)C)c3c(c2O)C(=O)C2=C(O)[C@]4(O)C(=O)C(C(N)=O)=C(O)[C@@H](N(C)C)[C@@H]4C[C@@H]2C3)oc1C` [LC], the MIC in assay [1] (setting [3]) and in assay [2] (setting [4]) was less than 4 mg/L each time. Take `CN(C)c1cc(CNC(=O)C2CCCN2)c(O)c2c1C[C@H]1C[C@H]3[C@H](N(C)C)C(O)=C(C(N)=O)C(=O)[C@@]3(O)C(O)=C1C2=O` (some centres unmarked): the MIC in assay [1] (setting [7]) and in assay [2] (setting [8]) was more than 4 mg/L each time.

As for `CC#Cc1cc(C#CC)c2c(c1O)C(=O)C1=C(O)[C@]3(O)C(=O)C(C(N)=O)=C(O)[C@@H](N(C)C)[C@@H]3C[C@@H]1C2`, the MIC in assay [1] (setting [7]) and in assay [2] (setting [8]) was more than 4 mg/L each time.

With `CN(C)[C@@H]1C(O)=C(C(N)=O)C(=O)[C@@]2(O)C(O)=C3C(=O)c4c(O)ccc(-c5cccc(C=O)c5)c4C[C@H]3C[C@@H]12` [BF], the MIC in assay [1] (setting [3]) and in assay [2] (setting [4]) was less than 4 mg/L in each case. Take `CN(C)c1cc(CN2CCC3(CCCC3)CC2)c(O)c2c1C[C@H]1C[C@H]3[C@H](N(C)C)C(O)=C(C(N)=O)C(=O)[C@@]3(O)C(O)=C1C2=O`: the MIC in assay [1] (setting [7]) and in assay [2] (setting [8]) was less than 4 mg/L throughout. With `CN(C)[C@@H]1C(O)=C(C(N)=O)C(=O)[C@@]2(O)C(O)=C3C(=O)c4c(O)ccc(/C=C/c5ccc(Br)cc5)c4C[C@H]3C[C@@H]12` [BL], the MIC in assay [1] (setting [3]) was more than 4 mg/L; in assay [2] (setting [4]), less than 4 mg/L. For the molecule `CN(C)[C@@H]1C(O)=C(C(N)=O)C(=O)[C@@]2(O)C(O)=C3C(=O)c4c(O)c(CN5CCOCC5)cc(-c5ccoc5)c4C[C@H]3C[C@@H]12` [QA], the MIC in assay [1] (setting [3]) and in assay [2] (setting [4]) was less than 4 mg/L throughout.

As for `CCOP(=O)(OCC)C(Nc1cc(N(C)C)c2c(c1O)C(=O)C1=C(O)[C@]3(O)C(=O)C(C(N)=O)=C(O)[C@@H](N(C)C)[C@@H]3C[C@@H]1C2)c1ccc(OC)cc1` (some centres unmarked) [Z], the MIC in assay [2] (read-out: Antibiotic Activity Gram +) was less than 4 mg/L. As for `CCCC(C)(C)NC(=O)C1=C(O)[C@@H](N(C)C)[C@@H]2[C@@H](O)[C@H]3C(=C(O)[C@]2(O)C1=O)C(=O)c1c(O)cccc1[C@@H]3C` [P], in assay [2] (setting [4]), the MIC was less than 4 mg/L.

(Values after patent US20150141381A1, “TETRACYCLINE COMPOUNDS HAVING TARGET THERAPEUTIC ACTIVITIES” (Paratek Pharmaceuticals, Inc., priority 2001, published 2015).)
